Values quoted from earlier work as cited in patent US20200163955A1, “STERILE COMPOSITIONS OF INDACATEROL SUITABLE FOR NEBULIZATION” (GLENMARK SPECIALTY S.A., priority 2018, published 2020).

Conditions: water

## CCc1cc2c(cc1CC)CC(NC[C@H](O)c1ccc(O)c3[nH]c(=O)ccc13)C2 [Indacaterol, 5-[(1R)-2-[(5,6-diethyl-2,3-dihydro-1H-inden-2-yl)amino]-1-hydroxyethyl]-8-hydroxy-1H-quinolin-2-one]
  aqueous solubility: very slightly soluble in water
